Test results as given in US20060258729A1, “Antibacterial pyrazole carboxylic acid hydrazides” (priority 2002, published 2006).
Values after ≈ are worked out from the molar mass of the structure shown.

What was measured:
[1] = system: vancomycin-resistant Enterococcus strain B42762; experiment: Inhibition of bacterial growth (MIC), VRE; assay type: cell-based; conditions: VRE, 16 to 18 hours, 37° C., read-out: Minimum Inhibitory Concentration for Bacterial Growth, VRE
Method in brief: (§1)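 Log-phase cultures were diluted to 1×10^5 CFU/mL in LB or BHI medium and exposed to two-fold serial compound dilutions (usually 80-0.078 μg/mL, 11 concentrations) with 1% DMSO final. After shaking incubation at 37° C. for 16 to 18 hours, growth was read as OD at 570 nm.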

[2] = system: Staphylococcus aureus strain IP 8; experiment: Inhibition of bacterial growth (MIC), Sa; assay type: cell-based; conditions: IP8, 16 to 18 hours, 37° C., read-out: Minimum Inhibitory Concentration for Bacterial Growth, Sa
Method in brief: as §1

B. subtilis pol IIIE = target: T1, B. subtilis pol IIIE (Bacillus subtilis, UniProt O34623); experiment: DNA polymerase assay, B. subtilis pol IIIE; assay type: biochemical
T1 construct: made in house

B. subtilis pol IIIC = target: T2, B. subtilis pol IIIC (Bacillus subtilis, UniProt P13267); experiment: Classical enzyme kinetic analyses (Lineweaver-Burk) with pol IIIC; assay type: biochemical; conditions: variable substrate dGTP; Compound 17 at 0, 20, 60 μM; HB-EMAU at 0, 1.6, 4.8 μM
T2 construct: made in house
Protocol: The variable substrate in the experiments for FIGS. 1A and 1B was dGTP. See text for details.
Classical enzyme kinetic analyses were performed with Compound 17 and pol IIIC in which reaction velocity was measured as a function of each substrate (dGTP) concentration at several inhibitor concentrations (0, 20, and 60 μM). The results are graphed in a double reciprocal plot by the method of Lineweaver and Burk in FIG. 1A and show the effect of varying dGTP.
Compounds of the anilinouracil (AU) family, classical DNA polymerase inhibitors, inhibit pol IIIC strictly by “competitive” inhibition. An example is shown in the double reciprocal plot in FIG. 1B for the compound N3-hydroxybutyl 6-(3′-ethyl-4′-methylanilino) uracil (HB-EMAU), tested at 0, 1.6, and 4.8 μM. Such AU compounds compete with the dGTP substrate for binding to the enzyme (Clements et al., J. Biol. Chem. 250, 522-526 (1975)). “Noncompetive” inhibitors are exemplified by the class of HIV reverse transcriptase inhibitors, 4,5,6,7-tetrahydro-5-methylimidazo[4,5,1-jk][1,4]benzodiazepin-2(1H)-one (TIBO), i.e., TIBO compounds bind a site adjacent to the active site (Spence et al., Science 267, 988-993 (1995)). In contrast, the data in FIG. 1A clearly indicate that Compound 17, a pyrazole carboxylic acid hydrazide, inhibits pol IIIC by an “uncompetitive” mechanism.

[3] = system: Escherichia coli strain J53; experiment: Inhibition of bacterial growth (MIC), Ec; assay type: cell-based; conditions: 16 to 18 hours, 37° C., read-out: Minimum Inhibitory Concentration for Bacterial Growth, Ec
Method in brief: as §1

[4] = system: Bacillus subtilis strain BD54; experiment: Inhibition of bacterial growth (MIC), Bs; assay type: cell-based; conditions: 16 to 18 hours, 37° C., read-out: Minimum Inhibitory Concentration for Bacterial Growth, Bs
Method in brief: as §1

[5] = system: Enterococcus faecalis strain 29212; experiment: Inhibition of bacterial growth (MIC), Efcl; assay type: cell-based; conditions: 16 to 18 hours, 37° C., read-out: Minimum Inhibitory Concentration for Bacterial Growth, Efcl
Method in brief: as §1

[6] = system: methicillin-resistant S. aureus strain 1094; experiment: Inhibition of bacterial growth (MIC), MRSA; assay type: cell-based, Staphylococcus aureus; conditions: Staphylococcus aureus, MRSA, 16 to 18 hours, 37° C., read-out: Minimum Inhibitory Concentration for Bacterial Growth, MRSA
Method in brief: as §1

[7] = system: E. faecium clinical isolate; experiment: Inhibition of bacterial growth (MIC), Efcm; assay type: cell-based; conditions: Enterococcus faecium, 16 to 18 hours, 37° C., read-out: Minimum Inhibitory Concentration for Bacterial Growth, Efcm
Method in brief: as §1

test strains of bacteria = experiment: Inhibition of bacterial growth, whole panel of test strains; assay type: cell-based
Protocol: Each compound was assayed against a panel of a strain of Bacillus subtilis, of strains of antibiotic-resistant and sensitive Enterococcus and Staphylococcus species, and of a strain of the Gram-negative bacterium Escherichia coli. Compounds were dissolved in DMSO at 100× the desired highest concentration and added to one well of a 96-well microassay plate. Two-fold serial drug dilutions were made across the plate in DMSO to yield 11 concentrations (usually 80-0.078 μg/mL) plus an untreated control. Drugs were then transferred to fresh plates using 1.5 μL per well. Log phase cultures were diluted to yield a concentration of 1×10^5 colony forming units/mL in either LB or BHI medium and transferred to the plates containing drug for a final volume of 150 μL. Each well, including the DMSO controls, contained a final concentration of 1% DMSO. Plates were incubated with shaking at 37° C. for 16 to 18 hours. Cell growth was determined by measuring optical density (570 nm, 1 cm path length) in a microplate reader. MIC (minimum inhibitory concentration) is equivalent to the lowest concentration at which growth is not observed. The bacterial strains and MIC determinations have been well characterized and are described elsewhere (Tarantino et al., Antimicrob. Agents Chemother., 43: 1982-1987 (1999); Daly et al., Antimicrob. Agents Chemother., 44: 2217-2221 (2000)).

T1 sequence (O34623 whole entry): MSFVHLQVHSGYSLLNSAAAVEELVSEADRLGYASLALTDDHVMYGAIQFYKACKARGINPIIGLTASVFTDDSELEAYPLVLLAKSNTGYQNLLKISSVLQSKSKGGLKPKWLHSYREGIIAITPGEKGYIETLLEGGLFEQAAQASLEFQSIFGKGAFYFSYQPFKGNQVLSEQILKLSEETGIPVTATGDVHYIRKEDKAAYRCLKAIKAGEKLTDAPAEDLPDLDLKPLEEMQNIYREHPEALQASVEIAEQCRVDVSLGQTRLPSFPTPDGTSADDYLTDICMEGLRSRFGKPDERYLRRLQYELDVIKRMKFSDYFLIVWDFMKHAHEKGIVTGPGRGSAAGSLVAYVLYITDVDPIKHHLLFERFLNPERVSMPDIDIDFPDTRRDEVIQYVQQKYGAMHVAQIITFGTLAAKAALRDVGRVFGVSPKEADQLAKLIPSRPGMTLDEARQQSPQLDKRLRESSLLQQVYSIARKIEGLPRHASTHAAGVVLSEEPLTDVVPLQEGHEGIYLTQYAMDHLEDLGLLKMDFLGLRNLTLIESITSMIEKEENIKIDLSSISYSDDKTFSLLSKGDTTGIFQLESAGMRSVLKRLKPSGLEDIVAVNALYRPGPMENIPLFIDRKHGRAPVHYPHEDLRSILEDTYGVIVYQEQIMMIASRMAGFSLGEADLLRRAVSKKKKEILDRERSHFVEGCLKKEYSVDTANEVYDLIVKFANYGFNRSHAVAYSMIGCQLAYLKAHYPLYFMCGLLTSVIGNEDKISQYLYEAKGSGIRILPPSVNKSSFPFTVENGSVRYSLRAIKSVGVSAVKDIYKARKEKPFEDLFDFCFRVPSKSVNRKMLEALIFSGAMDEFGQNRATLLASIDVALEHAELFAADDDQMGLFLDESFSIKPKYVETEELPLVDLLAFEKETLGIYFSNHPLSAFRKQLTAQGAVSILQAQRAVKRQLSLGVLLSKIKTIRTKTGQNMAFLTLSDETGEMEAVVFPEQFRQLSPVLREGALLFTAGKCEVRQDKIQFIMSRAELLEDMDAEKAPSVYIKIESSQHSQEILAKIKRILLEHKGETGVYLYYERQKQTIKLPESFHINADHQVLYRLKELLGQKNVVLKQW
T2 sequence (P13267 whole entry): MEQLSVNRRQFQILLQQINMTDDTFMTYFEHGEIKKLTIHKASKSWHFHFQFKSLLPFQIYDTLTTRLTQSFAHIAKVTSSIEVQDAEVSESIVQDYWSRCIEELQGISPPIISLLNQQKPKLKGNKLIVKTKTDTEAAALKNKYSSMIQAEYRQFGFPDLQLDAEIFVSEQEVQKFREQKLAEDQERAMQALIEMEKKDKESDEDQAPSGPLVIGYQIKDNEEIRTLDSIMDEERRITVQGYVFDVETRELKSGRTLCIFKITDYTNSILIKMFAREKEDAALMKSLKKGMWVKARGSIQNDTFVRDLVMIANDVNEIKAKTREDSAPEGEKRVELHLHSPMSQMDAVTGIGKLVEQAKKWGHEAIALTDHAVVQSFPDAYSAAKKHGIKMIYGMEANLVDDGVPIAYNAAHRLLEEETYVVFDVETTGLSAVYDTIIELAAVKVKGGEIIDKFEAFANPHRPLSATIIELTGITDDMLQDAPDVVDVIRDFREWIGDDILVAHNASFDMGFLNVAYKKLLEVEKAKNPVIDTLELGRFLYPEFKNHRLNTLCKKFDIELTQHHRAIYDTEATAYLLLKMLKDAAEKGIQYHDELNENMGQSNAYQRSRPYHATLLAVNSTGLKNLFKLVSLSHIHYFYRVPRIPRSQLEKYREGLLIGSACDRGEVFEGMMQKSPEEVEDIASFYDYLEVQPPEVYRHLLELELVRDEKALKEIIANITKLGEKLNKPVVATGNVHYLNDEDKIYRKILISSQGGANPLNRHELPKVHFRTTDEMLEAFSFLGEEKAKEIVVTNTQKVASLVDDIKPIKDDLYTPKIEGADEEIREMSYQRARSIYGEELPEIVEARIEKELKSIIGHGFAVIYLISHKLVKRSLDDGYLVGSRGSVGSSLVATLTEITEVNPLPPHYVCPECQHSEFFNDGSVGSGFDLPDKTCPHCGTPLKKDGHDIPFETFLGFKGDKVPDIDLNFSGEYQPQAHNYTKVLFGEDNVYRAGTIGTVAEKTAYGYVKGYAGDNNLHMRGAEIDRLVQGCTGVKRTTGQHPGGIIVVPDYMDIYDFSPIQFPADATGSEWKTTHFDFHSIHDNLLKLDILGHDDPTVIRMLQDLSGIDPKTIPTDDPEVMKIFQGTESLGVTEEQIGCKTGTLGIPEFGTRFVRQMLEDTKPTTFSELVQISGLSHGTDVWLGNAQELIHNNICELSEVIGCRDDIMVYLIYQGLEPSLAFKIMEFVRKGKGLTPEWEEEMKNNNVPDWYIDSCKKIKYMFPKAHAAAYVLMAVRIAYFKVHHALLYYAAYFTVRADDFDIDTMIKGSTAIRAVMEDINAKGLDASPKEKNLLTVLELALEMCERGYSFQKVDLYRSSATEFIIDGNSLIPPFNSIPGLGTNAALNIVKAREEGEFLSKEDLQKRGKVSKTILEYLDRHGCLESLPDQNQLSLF

Q: With `COc1ccc(-c2cc(C(=O)NN=Cc3cc(OC)c(OC)c(OC)c3)[nH]n2)cc1` [Compound 17] as the molecule, how does the MIC [1] read?
A: 5 mg/L (≈ 12.2 µM)

Q: And the MIC [2]?
A: 1.25 mg/L (≈ 3.05 µM)

Q: And the inhibition at 80 µg/mL (B. subtilis pol IIIE; 80 μg/mL (190-260 μM) final concentration, all four dNTPs, read-out: Percent Enzymatic Inhibition B. subtilis pol IIIE)?
A: > 20%

Q: And the IC50 (B. subtilis pol IIIE; B. subtilis Pol IIIE IC50, 4 dNTPs, in the presence of all four dNTP substrates)?
A: > 780 µM

Q: And the “Mechanism of inhibition of pol IIIC (double reciprocal plot)” value (B. subtilis pol IIIC)?
A: uncompetitive inhibition mechanism

Q: What about the MIC [3] of the same molecule?
A: > 80 mg/L

Q: And the MIC [4]?
A: 0.625 mg/L (≈ 1.52 µM)

Q: And the MIC [5]?
A: 20 mg/L (≈ 48.7 µM)

Q: And the MIC [6]?
A: 2.5 mg/L (≈ 6.09 µM)

Q: What about the MIC [7] of the same molecule?
A: 5 mg/L (≈ 12.2 µM)

Q: What about the “Inhibition of bacterial growth, result in words (rank of MIC values)” value (test strains of bacteria) of the same molecule?
A: lowest MIC values
